Test results taken from the supplement of paper PMC11451515.

How the values were obtained:
Details in all cases: 48 h
NOMO1 [1] = assay: AUC of viability dose-response curve (% viability x log10 dose units); higher = less sensitive
Procedure, shortened: (§1)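 Area under the curve was integrated by trapezoidal rule from a log-logistic fit of normalised viability, with curves exceeding full viability scaled and quality-control failures removed. The fit had four parameters over log10 doses. Viability came from CellTiter-Glo One luminescence, normalised per plate to DMSO and cell-free wells, after leukemia cells adapted to each medium (500 or 1000 cells/well, 1536-well plates) were exposed to library compounds in DMSO for 48 h at 37°C. The 11 threefold doses ran from 47 μM to 0.79 nM.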

P12-Ichikawa [2] = assay: as above
Procedure, shortened: as §1

SEM cells [3] = assay: as above
Procedure, shortened: as §1

SEM cells [4] = assay: cell viability relative to DMSO control; higher = less cytotoxic
Procedure, shortened: (§2)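 NOMO1 or SEM (500 cells/well) or P12-Ichikawa (1000 cells/well) leukemia cells were adapted for at least four passages in each medium. They were seeded in 1536-well plates (5 μl) and pin-dosed with library compounds in DMSO over an 11-point threefold series, 47 μM to 0.79 nM. CellTiter-Glo One luminescence was read after 48 h at 37°C. Viability is the per-plate percentage relative to DMSO wells, with cell-free wells as background.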

NOMO1 [5] = assay: as above
Procedure, shortened: as §2

P12-Ichikawa [6] = assay: as above
Procedure, shortened: as §2

Cn1cnc2c(F)c(Nc3ccc(Br)cc3Cl)c(C(=O)NOCCO)cc21
AUC of viability dose-response curve
Details	NOMO1 [1]	P12-Ichikawa [2]	SEM cells [3]
HPLM + 10% dialyzed FBS	260	295	295
RPMI 5 mM glucose + 10% FBS	289	295	278
RPMI 5 mM glucose + 10% dialyzed FBS	258	299	273

Nc1nc(N)nc(-c2cc(Cl)ccc2Cl)n1.O=C(O)/C=C\C(=O)O
AUC of viability dose-response curve
Details	NOMO1 [1]	P12-Ichikawa [2]	SEM cells [3]
HPLM + 10% dialyzed FBS	472	447	447
RPMI 5 mM glucose + 10% FBS	453	460	432
RPMI 5 mM glucose + 10% dialyzed FBS	461	457	459

CC(=O)C1=C(O)C2(C)C(=CC1=O)Oc1c(C(C)=O)c(O)c(C)c(O)c12 (configuration not stated)
AUC of viability dose-response curve
Details	NOMO1 [1]	P12-Ichikawa [2]	SEM cells [3]
HPLM + 10% dialyzed FBS	328	347	459
RPMI 5 mM glucose + 10% FBS	305	342	452
RPMI 5 mM glucose + 10% dialyzed FBS	321	375	448

cell viability [%], SEM cells [4]
Details	HPLM + 10% dialyzed FBS	RPMI 5 mM glucose + 10% FBS
0.000781 µM	83.1	99.1
0.00234 µM	120	145
0.00702 µM	123	123
0.0211 µM	123	129
0.0632 µM	124	128
0.19 µM	133	152
0.569 µM	118	153
1.71 µM	149	124
5.12 µM	133	136
15.4 µM	149	133
46.1 µM	124	130

O=C1c2c(O)cc(O)cc2O[C@H](c2cc(O)c(O)c(O)c2)[C@H]1O
AUC of viability dose-response curve
Details	NOMO1 [1]	P12-Ichikawa [2]	SEM cells [3]
HPLM + 10% dialyzed FBS	430	456	426
RPMI 5 mM glucose + 10% FBS	461	452	410
RPMI 5 mM glucose + 10% dialyzed FBS	453	455	420

O=C(c1ccc(/C=C/c2n[nH]c3ccccc23)cc1)N1CCNCC1
AUC of viability dose-response curve
Details	HPLM + 10% dialyzed FBS	RPMI 5 mM glucose + 10% FBS	RPMI 5 mM glucose + 10% dialyzed FBS
NOMO1 [1]	434	387	383
P12-Ichikawa [2]	332	331	346

cell viability [%]
Details	NOMO1 [5]	P12-Ichikawa [6]	SEM cells [4]
HPLM + 10% dialyzed FBS, 0.000781 µM	108	94.8	82.7
HPLM + 10% dialyzed FBS, 0.00234 µM	96.5	101	77.8
HPLM + 10% dialyzed FBS, 0.00702 µM	88.4	98	83.4
HPLM + 10% dialyzed FBS, 0.0211 µM	87.1	99.4	79
HPLM + 10% dialyzed FBS, 0.0632 µM	97.9	111	60.7
HPLM + 10% dialyzed FBS, 0.19 µM	120	102	53.2
HPLM + 10% dialyzed FBS, 0.569 µM	115	108	48.1
HPLM + 10% dialyzed FBS, 1.71 µM	69.4	9.55	16.3
HPLM + 10% dialyzed FBS, 5.12 µM	70.9	13.2	20
HPLM + 10% dialyzed FBS, 15.4 µM	88.7	12.2	19.3
HPLM + 10% dialyzed FBS, 46.1 µM	73.1	19.6	19.8
RPMI 5 mM glucose + 10% FBS, 0.000781 µM	97	92.6	109
RPMI 5 mM glucose + 10% FBS, 0.00234 µM	100	90.8	120
RPMI 5 mM glucose + 10% FBS, 0.00702 µM	94	100	106
RPMI 5 mM glucose + 10% FBS, 0.0211 µM	85.8	91.3	85.3
RPMI 5 mM glucose + 10% FBS, 0.0632 µM	90.7	101	82.7
RPMI 5 mM glucose + 10% FBS, 0.19 µM	86.2	107	56.2
RPMI 5 mM glucose + 10% FBS, 0.569 µM	87.1	102	62.1
RPMI 5 mM glucose + 10% FBS, 1.71 µM	56.2	13.5	10.9
RPMI 5 mM glucose + 10% FBS, 5.12 µM	63.8	16.9	11.7
RPMI 5 mM glucose + 10% FBS, 15.4 µM	58.4	16.3	12.3
RPMI 5 mM glucose + 10% FBS, 46.1 µM	69	19.5	13.3
RPMI 5 mM glucose + 10% dialyzed FBS, 0.000781 µM	86.5	91.2	75.8
RPMI 5 mM glucose + 10% dialyzed FBS, 0.00234 µM	85.6	95.8	78.2
RPMI 5 mM glucose + 10% dialyzed FBS, 0.00702 µM	88.6	86.5	73.1
RPMI 5 mM glucose + 10% dialyzed FBS, 0.0211 µM	97.2	104	80.2
RPMI 5 mM glucose + 10% dialyzed FBS, 0.0632 µM	87.8	99.7	66.3
RPMI 5 mM glucose + 10% dialyzed FBS, 0.19 µM	97.4	98.3	51.9
RPMI 5 mM glucose + 10% dialyzed FBS, 0.569 µM	93.9	100	38.2
RPMI 5 mM glucose + 10% dialyzed FBS, 1.71 µM	54.9	25.3	15.9
RPMI 5 mM glucose + 10% dialyzed FBS, 5.12 µM	49.5	29.6	15.9
RPMI 5 mM glucose + 10% dialyzed FBS, 15.4 µM	65.5	25.8	14.6
RPMI 5 mM glucose + 10% dialyzed FBS, 46.1 µM	71.2	31.2	13.3

O=C(/C=C/C=C/c1ccc2c(c1)OCO2)N1CCCCC1
AUC of viability dose-response curve
Details	NOMO1 [1]	P12-Ichikawa [2]	SEM cells [3]
HPLM + 10% dialyzed FBS	429	446	466
RPMI 5 mM glucose + 10% FBS	444	463	448
RPMI 5 mM glucose + 10% dialyzed FBS	448	467	456

cell viability [%], SEM cells [4]
Details	HPLM + 10% dialyzed FBS	RPMI 5 mM glucose + 10% dialyzed FBS
0.000781 µM	129	114
0.00234 µM	119	129
0.00702 µM	125	103
0.0211 µM	127	157
0.0632 µM	139	146
0.19 µM	128	129
0.569 µM	116	150
1.71 µM	133	131
5.12 µM	132	167
15.4 µM	119	140
46.1 µM	87.1	108

Cc1ccc(NC(=O)c2cccc(N(C)C)c2)cc1NC(=O)c1ccc(O)cc1
AUC of viability dose-response curve
Details	NOMO1 [1]	P12-Ichikawa [2]	SEM cells [3]
HPLM + 10% dialyzed FBS	472	456	457
RPMI 5 mM glucose + 10% FBS	464	461	474
RPMI 5 mM glucose + 10% dialyzed FBS	470	446	450

cell viability [%]
Details	HPLM + 10% dialyzed FBS	RPMI 5 mM glucose + 10% FBS	RPMI 5 mM glucose + 10% dialyzed FBS
NOMO1 [5], 0.000781 µM	127	114	110
NOMO1 [5], 0.00234 µM	119	110	114
NOMO1 [5], 0.00702 µM	115	107	115
NOMO1 [5], 0.0211 µM	121	108	121
NOMO1 [5], 0.0632 µM	151	113	116
NOMO1 [5], 0.19 µM	136	109	110
NOMO1 [5], 0.569 µM	146	121	116
NOMO1 [5], 1.71 µM	122	118	126
NOMO1 [5], 5.12 µM	120	118	138
NOMO1 [5], 15.4 µM	136	121	108
NOMO1 [5], 46.1 µM	105	106	107
P12-Ichikawa [6], 0.000781 µM	120	114	–
P12-Ichikawa [6], 0.00234 µM	120	122	–
P12-Ichikawa [6], 0.00702 µM	118	120	–
P12-Ichikawa [6], 0.0211 µM	116	127	–
P12-Ichikawa [6], 0.0632 µM	111	113	–
P12-Ichikawa [6], 0.19 µM	116	111	–
P12-Ichikawa [6], 0.569 µM	119	119	–
P12-Ichikawa [6], 1.71 µM	108	113	–
P12-Ichikawa [6], 5.12 µM	108	113	–
P12-Ichikawa [6], 15.4 µM	108	102	–
P12-Ichikawa [6], 46.1 µM	96.7	95.2	–

CCCCCCCCCCCCCCCC(=O)O[C@@H]1[C@@H](O)[C@@H](O)[C@@H]([C@H](NC(=O)[C@@H]2C[C@@H](CCC)CN2C)[C@H](C)Cl)O[C@@H]1SC.Cl
AUC of viability dose-response curve
Details	NOMO1 [1]	P12-Ichikawa [2]	SEM cells [3]
HPLM + 10% dialyzed FBS	426	452	470
RPMI 5 mM glucose + 10% FBS	423	456	469
RPMI 5 mM glucose + 10% dialyzed FBS	425	442	465
